Each structure is given as a SMILES string. Where two headings read alike, the source gives them in different places.

Data set [1] is described as follows: In vivo plasma concentration after microneedle, intramuscular and intravenous administration (Example 22). Details: species or system Female Sprague-Dawley rats. The conditions noted are these: 5 mg/kg IV in DMSO/PEG 400/cyclodextrin; monitored 48 hour. The procedure: Animals were separated into three cohorts; each was comprised of 6 rats. Every 3 rats were housed in a different cage. Each rat of the first cohort (rats 1-6) received four microneedle arrays with a total dose of 16 mg (8 mg of glecaprevir and 8 mg of pibrentasvir). The second cohort (rats 7-12) received intramuscular injections of glecaprevir and pibrentasvir. For each rat, 37.5 mg of the glecaprevir30/pibrentasvir30/[…]10 formulation was dispersed in 300 μL of sterile water, then 150 μL of the solution was injected into each thigh of the rat. The dose given to each rat was approximately […]. The final cohort (rats 13-18) received 5 mg/kg of glecaprevir and pibrentasvir given as IV injections. The IV formulations were prepared by dissolving each drug in 5% v/v DMSO, 10% v/v PEG 400 in water diluted with 20% v/v hydroxy-B-cyclodextrin in water. To minimise the interference of hair in application of the microneedle arrays, the dorsal hair of the rats from the first cohort (rats 1-6) was removed prior to the experiment. The bulk hair was shaved using an electric hair clipper and the remaining hair residuals were removed using depilatory hair removal cream. Rats were then left for a 24 hour period to allow the skin to recover and to ensure complete restoration of skin barrier function before affixing the microneedle arrays. […]

Data set [2] is described as follows: Terminal half-life of conventional aqueous formulations injected intramuscularly. Details: species or system adult male Wistar rats. The conditions noted are these: male, Wistar, rat, in vivo, im. The text has this:
The foregoing experiments have shown that solid compositions comprising microparticles of glecaprevir and/or pibrentasvir may be formed through combination with certain first and second excipients. […] The solid compositions have also been reformulated into implantable rods, and microneedle arrays. Any of the solid compositions, aqueous dispersions, implantable rods, and microneedle arrays are expected to be therapeutically useful based on the known therapeutic uses of glecaprevir and pibrentasvir and the well-tolerated nature of the first and second excipients used. In addition, the form of the solid composition, aqueous dispersion, implantable rod, and microneedle array are expected to provide enhanced pharmacokinetic properties and therapeutic benefits when compared to conventional glecaprevir and pibrentasvir orally-dosed formulations. […] In particular, the formulations comprising microparticles of glecaprevir and/or pibrentasvir as described herein are expected to greatly improve the terminal half-life of the glecaprevir and/or pibrentasvir in vivo as compared to conventional aqueous formulations in which the glecaprevir and/or pibrentasvir are solubilised through addition of DMSO, when the formulations are delivered as intramuscular and/or subcutaneous injections.

The nature of data set [3]: Ex vivo skin deposition, modified Franz diffusion cell. The format is in vitro ADME. The procedure: Ex vivo skin deposition experiments were carried out utilising a modified Franz diffusion cell. Full thickness skin was collected and excised within 24 hours of birth. On the day of the experiment, the skin was first pre-equilibrated in PBS at pH 7.4 for 30 minutes until totally thawed and then carefully shaved using a razor. It was then cyanoacrylate-glued to the donor compartment of the Franz diffusion cells to ensure its adhesion to the set up during the microneedle insertion and throughout the experiment. Microneedle arrays were applied to the skin using firm thumb pressure for 30 seconds. A stainless-steel cylinder (diameter 11 mm, mass 11.5 g) was put on the top of each microneedle array to hold them in place throughout the experiment. The receiver compartment was filled with 12 mL of 1% w/v SLS in PBS (pH 7.4). The donor compartment was clamped on top of the receiver compartment and wrapped with Parafilm® M to prevent solvent evaporation. Samples of 200 μL of the receiver compartment were taken at predefined time points of 0.5, 1, 1.5, 2, 3, 4, 6, 10, and 24 hours and was replaced with the fresh release medium. At 24 hours, the Franz cells were disassembled, the skin surface dabbed clean to remove surface drug, and glecaprevir and pibrentasvir were extracted from skins. Cumulative amounts of glecaprevir and pibrentasvir delivered from each formulation to both skin and receiver compartments were also determined. To extract the drug from the skin, skin samples collected at 24 hours were cut into small pieces, where 0.5 ml of water was added to each sample. They were then homogenised for 15 minutes using a Tissue Lyser LT. Subsequently, 1 mL of methanol was added, and samples were homogenised again for another 15 minutes. Then they were transferred to the tubes followed by adding 3.5 mL of methanol. After a 30-min sonication, 100 μL of the samples were diluted to 1 mL by PBS buffer. The samples were vortexed and centrifuged, then analysed by HPLC.

On to `CC(C)(C)[C@@H]1NC(=O)O[C@@H]2CCC[C@H]2OC/C=C/C(F)(F)c2nc3ccccc3nc2O[C@@H]2C[C@@H](C(=O)N[C@]3(C(=O)NS(=O)(=O)C4(C)CC4)C[C@H]3C(F)F)N(C2)C1=O` [glecaprevir, Glecaprevir], for which the “plasma concentration after intravenous (IV) administration” value in data set [1] is “subsided quickly within the 48 hour period”. For the same compound, in data set [2] (conventional aqueous formulation (solubilised through addition of DMSO), injected intramuscularly, read-out: terminal half-life (converted)), the half-life (in general, the time in which the quantity being followed falls by half) was 4 h. Further, the “deposited into the skin” value in data set [3] (from microneedle arrays, over 24 h) was 285.2 ± 51.3 µg. In addition, the “delivered to the receiver compartment of the Franz diffusion cells” value in data set [3] (from microneedle arrays, over 24 h, receiver 1% w/v SLS in PBS pH 7.4) is 203.9 ± 41.3 µg. Moreover, in data set [3] (from microneedle arrays, over 24 hours), the “total amount delivered to the skin and receiver compartment” value came out at 489.1 ± 68.6 µg. In addition, the “total amount delivered as share of drug initially present in the microneedle arrays” value in data set [3] (over 24 hours) is reported as 25.1±3.5%.
As for `COC(=O)N[C@H](C(=O)N1CCC[C@H]1c1nc2cc([C@H]3CC[C@H](c4cc5nc([C@@H]6CCCN6C(=O)[C@@H](NC(=O)OC)[C@@H](C)OC)[nH]c5cc4F)N3c3cc(F)c(N4CCC(c5ccc(F)cc5)CC4)c(F)c3)c(F)cc2[nH]1)[C@@H](C)OC` [pibrentasvir, Pibrentasvir], in data set [2], the half-life was 10 h. Also, in data set [3] (24 h, pH 7.4), the “delivered to the receiver compartment of the Franz diffusion cells” value turned out to be 115.2 ± 29 µg; the “deposited into the skin” value is 304 ± 45.7 µg; the “total amount delivered as share of drug initially present in the microneedle arrays” value was found to be 23.4±3.2%; the “total amount delivered to the skin and receiver compartment” value worked out at 419.2 ± 56.6 µg.

For the origin of these results see patent US20240398697A1, “Injectable Formulations” (The University of Liverpool, priority 2021, published 2024).
